Earlier results, collected in article PMC2796837 (Journal of biological inorganic chemistry : JBIC : a …, 2008).
Read-outs that look alike come from different tables or passages of the source.

Assays:
[1] = I = 1.0 M KCl, 25°C
[2] = I = 1.0 M KCl, 25°C; remark: listed apart in the source
[3] = I = 1.0 M KCl, 25°C; remark: listed apart in the source
[4] = I = 1.0 M KCl, 25°C; remark: listed apart in the source
[5] = I = 1.0 M KCl, 25°C; remark: listed apart in the source
[6] = I = 1.0 M KCl, 25°C; remark: listed apart in the source
[7] = I = 1.0 M KCl, 25°C; remark: listed apart in the source
[8] = I = 1.0 M KCl, 25°C; remark: listed apart in the source
[9] = I = 1.0 M KCl, 25°C; remark: listed apart in the source
[10] = I = 1.0 M KCl, 25°C; remark: listed apart in the source
[11] = I = 1.0 M KCl, 25°C; remark: listed apart in the source
[12] = Ce^3+ complex
[13] = I = 1.0 M and 25 °C

O=C(O)CN1CCN(CC(=O)O)CCN(CC(=O)O)CCN(CC(=O)O)CC1 [DOTA]
log K1^H [1]: 12.60
log K2^H [1]: 9.70
log K3^H [1]: 4.50
log K4^H [1]: 4.14
log K5^H [1]: 2.32
log KMgL [2]: 11.15
log KCaL [3]: 16.37
log KCuL [4]: 22.72
log KZnL [5]: 18.17
log KML, Ce^3+ [6]: 23.4
log KML, Nd^3+ [7]: 23.0
log KML, Eu^3+ [8]: 23.5
log KML, Dy^3+ [9]: 24.8
log KML, Yb^3+ [10]: 25.0
log KML, Lu^3+ [11]: 25.4
k1 (proton assisted dissociation rate constant) [12]: 0.0008 M⁻¹ s⁻¹

O=C([O-])CN1CCN(CC(=O)[O-])CCN(C(CO)C(O)CO)CCN(CC(=O)[O-])CC1.[Gd+3] (centres unmarked) [GdDO3A-butrol]
LD50: 23 mmolkg^−1

CC(O)CN1CCN(CC(=O)[O-])CCN(CC(=O)[O-])CCN(CC(=O)[O-])CC1.[Gd+3] (centres unmarked) [GdHP-DO3A]
LD50: 12 mmolkg^−1

CN1CCNCC1 [N-methylpiperazine]
log K1^H [13]: 4.83

C1CNCCN1 [piperazine]
log K1^H [13]: 6.04
